One experiment concerns PGE2. Description: PGE2 production in macrophages activated by LPS (ELISA). In kind it is cell-based. How it is done:
First, 1×10^6 cells/ml of RAW264.7 cells were inoculated into a 96-well tissue culture plate and left to stand at room temperature for 5 hours. Then, the inventive macelignan was added to the cells at each of concentrations of 1-20 μM and incubated for 2 hours. A negative control group was not treated with anything, and a positive control group was treated with curcumin (isolated from Curcuma longa; Sigma) reported to have PGE2 inhibitory activity. Then, the cells were treated with 1 μg/ml of LPS and cultured for 18 hours. The production of PGE2 in the macrophages was quantified by an assay kit (R&D System Inc, Minneapolis, USA) using an ELISA method (Chen et al., Biochem. Pharmacol., 68: 1089-1100, 2002).
(In general: In an ELISA, binding on a coated surface is turned into a signal by an enzyme label.)

The nature of experiment [1]: Clinical visual evaluation of skin lesion, atopic dermatitis model. In kind it is in vivo, NC/Nga mice. How it is done:
In order to induce atopic dermatitis, 100 mg of mite antigen cream was applied on the ear, occipital region and back of NC/Nga mouse (9 to 11 weeks old), except for the negative control group, 3 times a week, 2 hours after the application of 4% SDS solution. Three weeks later, it was observed whether atopic dermatitis was induced by checking skin rash, erythema, cornification, or the like. Atopic dermatitis was induced in all groups except for the negative control group. For drug treatment and evaluation of therapeutic effect, mice were grouped into 12 groups, 6 oral administration groups and 6 topical application groups (each consisting of negative control group, positive control group, macelignan low conc. group, macelignan high conc. group, nutmeg extract low conc. group, and nutmeg extract high conc. group), with n=5 per cage. […] Transepidermal water loss (TEWL), skin hydration and erythema index were measured one day before the end of the test. […]
Prior to the end of the experiment, the lesions of the mice were photographed. The change of the skin lesion was evaluated visually.

The test system of another experiment is IL-4 secreting cells. Kind of experiment: Counting of IL-4 secreting cells in the lungs (ELISpot), asthma model. The format is in vivo, C57BL/6 (B6) male mice. The following applies: oral 400 μg/g and 800 μg/g; vs vehicle (corn oil) group. Here is the method:
5 μL of allergen, AP (aspergillus protease, 1 mg/mL, Sigma-Aldrich, St. Louis, Mo.) was mixed with 45 μL of OVA (chicken egg ovalbumin, 0.5 mg/mL, Sigma-Aldrich). After 3 intraperitoneal injections with 4-day intervals, asthma was induced by 2 intranasal challenges with 4-day interval. The intranasal challenge was performed under isoflurane inhalational anesthesia. Macelignan dissolved in corn oil was orally administered every day.
Within 24 hours after the last allergen challenge, the mouse was anesthetized by intraperitoneal injection of 0.1 mg/g sodium pentobarbital. After tracheal intubation, flexiVent (Scireq®, Montreal, Canada) was connected to maintain stable ventilation. Thereafter, striated muscle was relaxed by intravenous (IV) administration of 0.08 mg/kg pancuronium (Sigma-Aldrich). Following airway hypersensitivity test by IV administration of acetylcholine (Sigma-Aldrich), 1 mL of DPBS (Dulbecco's phosphate buffered saline) was injected twice into the intubation tube using a syringe for bronchioalveolar lavage. Thereafter, the chest was opened and the lungs were subjected to ELISpot assay. […]
When asthma is induced in a mouse, Th2 cells in the lungs increase. […] After addition of substrate dissolved in 0.6% low melting agarose followed by incubation at 4° C., spots were counted within 24 hours to count the number of IL-4 secreting cells in the lungs.

For `COc1cc(C[C@H](C)[C@H](C)Cc2ccc3c(c2)OCO3)ccc1O` (single isomer, unassigned) [macelignan], the “production of PGE2” value with PGE2 (1-20 μM, LPS 1 μg/ml, 18 hours, effect shown even at 5 μM) is given as “concentration-dependently inhibited”. Also, the “PGE2 production-inhibitory effect compared with curcumin” value in the experiment with PGE2 (positive control curcumin, P<0.05) is on record as “almost similar to the case of treatment with curcumin”. Besides, the “clinical visual evaluation of skin lesion” value is “remarkable decrease in erythema/hemorrhage, dryness/scarring, edema, excoriation/erosion and lichenification and improvement in atopic dermatitis” in experiment [1] (oral administration 50 and 150 mg/kg); “remarkable decrease in erythema/hemorrhage, dryness/scarring, edema, excoriation/erosion and lichenification and improvement in atopic dermatitis” in experiment [1] (topical application 20 and 60 mg/kg). For the same compound, the “IL-4 secreting cells in the lungs” value in the experiment on IL-4 secreting cells is “decreased IL-4 secreting cells”.

Source of the values: US8853264B2, “Use of lignan compounds for treating or preventing inflammatory disease” (Newtree Industry Co., Ltd., priority 2005, dated 2014).
